From patent US12552767B2, “3-heteroaryl pyrrolidine and piperidine orexin receptor agonists” (Merck Sharp & Dohme LLC, priority 2020, dated 2026)

Target: T1, human OX2R (Homo sapiens, UniProt O43614)
T1 construct: expressed in transfected cells; host or cells: CHO (Chinese hamster ovary) cells, grown under G418 selection
T1 sequence (O43614 1-444): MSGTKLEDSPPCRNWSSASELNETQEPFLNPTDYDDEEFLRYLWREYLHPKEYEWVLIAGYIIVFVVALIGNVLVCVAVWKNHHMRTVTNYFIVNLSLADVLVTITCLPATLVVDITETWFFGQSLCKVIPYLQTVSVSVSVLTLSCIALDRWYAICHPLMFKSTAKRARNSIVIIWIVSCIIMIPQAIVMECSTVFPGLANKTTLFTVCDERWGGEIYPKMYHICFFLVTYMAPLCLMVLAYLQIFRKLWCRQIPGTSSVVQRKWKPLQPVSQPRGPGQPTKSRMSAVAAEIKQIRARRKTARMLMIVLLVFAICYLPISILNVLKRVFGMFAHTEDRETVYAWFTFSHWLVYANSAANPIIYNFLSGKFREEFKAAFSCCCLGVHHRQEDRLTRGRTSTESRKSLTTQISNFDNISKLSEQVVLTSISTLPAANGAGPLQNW
Test: IP-One (IPOne) orexin receptor agonist assay in CHO cells expressing human OX2R
Format: cell-based
Details: for EC50: CHO cells expressing human OX2R, IP-One IP-1 detection, 2 hours incubation, four parameter logistic fit, read-out: OX2R Potency, EC50; for % of reference agonist maximal effect: human OX2R, percentage of sample raw value/mean max effect (reference compound at 1 uM with 100% activity)
Text: The utility of the compounds in accordance with the present invention as orexin receptor OX1R and/or OX2R agonists may be readily determined without undue experimentation by methodology well known in the art. Both the OX1R and/or OX2R G-coupled protein receptors (GPCRs) couple through the Gαq signaling pathway, which ultimately promotes calcium mobilization via inositol triphosphate (IP3) production. The half-life of IP-3 is relatively short, being rapidly metabolized to inositol monophosphate (IP-1), which can be readily detected using a commercially available assay kit (IP-One; Cisbio; cat #621PAPEC) coupled with a cell line expressing the target receptor(s) of interest. The utility of the compounds in accordance with the present invention as orexin receptor OX1R and/or OX2R agonists may be determined utilizing this assay.
In a typical experiment, the OX1 and OX2 receptor agonist activity is determined in accordance with the following general experimental method. Chinese hamster ovary (CHO) cells expressing human OX1R and/or the human OX2R were grown in Iscove's modified DMEM containing glutaMAX™, 1% G418, 100 U/mL penicillin, 100 μg/mL streptomycin and 10% heat-inactivated qualified fetal bovine serum (FBS). The OX2R cells were seeded at 10,000 cells/well/50 μL and the OX1R cells were seeded at 20,000 cells/well/50 μL into 384-well white tissue culture plates (Greiner; cat #781080). All cell/media reagents were from GIBCO-Invitrogen Corp. The seeded cell plate(s) were incubated at 37° C. with 5% CO2 and 85% humidity for 20-24 hours. On the day of the assay, assay-ready compound plates were prepared using an acoustic liquid handler (ECHO; Labcyte), which dispensed sufficient volume of test compound stock (10 mM in DMSO) or 100% DMSO to prepare 10 point, ½-log dilutions in a final volume of 202.5 nL/well in all test wells of a 384-well diamond plate (Labcyte). Following completion of assay-ready plates, importantly, the next three steps were performed with minimal delay: 1) 20 μl of 1× stimulation buffer was added to the compound plate using a Multidrop Combi (small cassette, Thermo Fisher Scientific cat #24073290); 2) culture medium was removed from the cell plate using the Bluewasher plate washer (gentle spin; BlueCatBio); 3) 14 μl of compound/stimulation buffer mixture was added to the cell plate using a Bravo liquid handler (Agilent) prior to incubating cell plates at 37° C. with 5% CO2 and 85% humidity for 1 or 2 hours (OX1R and OX2R, respectively). During this incubation, IP-one detection reagents were prepared (38:1:1 lysis buffer:D2:AB-cryptate reagents). Six μL of mixed detection reagents were added to the cell plate using a Multidrop Combi (small cassette, Thermo Fisher Scientific cat #24073290) and incubated 60 minutes at room temperature in the dark. Fluorescence signal was detected using an Envision plate reader (Perkin Elmer) [LANCE/DELFIA Dual Enh (Em: APC 665; Ex: Cy5 620)].
For each compound, data were fit to a four parameter logistic fit (ActivityBase software) and the EC50 was reported as the inflection point of the resulting curve. Percent effect for each test compound was determined as the percentage of sample raw value/mean max effect, where the mean max effect was derived from the mean raw value of 32 control wells per assay plate (using Orexin A (cat #003-30) at 1 μM for human OX1R and a reference compound at 1 uM with 100% activity previously established by comparison to Orexin A for human OX2R). The intrinsic orexin receptor agonist activity of a compound which may be used in the present invention may be determined by these assays.

SMILES | EC50 [µM] | % of reference agonist maximal effect [%]
COC(=O)N1CCC[C@@H](c2n[nH]cc2Cl)[C@H]1CO[C@H]1CC[C@@H](c2ccccc2)CC1 (single isomer, unassigned) [Example 46] | > 10 | 0
CC#CCOC(=O)N1CCC[C@H](c2cc[nH]n2)[C@@H]1CO[C@H]1CC[C@@H](c2ccccc2)CC1 (relative stereo) [Example 103, but-2-yn-1-yl (CIS)-2-((((CIS)-4-phenylcyclohexyl)oxy)methyl)-3-(1H-pyrazol-3-yl)piperidine-1-carboxylate] | 3.61 | 73.6
CC(C)[C@H]1CC[C@@H](OC[C@H]2[C@@H](c3cc[nH]n3)CCCN2C(=O)C2CC2)CC1 (relative stereo) [Example 75, cyclopropyl((CIS)-2-((((CIS)-4-isopropylcyclohexyl)oxy)methyl)-3-(1H-pyrazol-3-yl)piperidin-1-yl)methanone] | 3.63 | 95.7
O=C(OC1CCC1)N1CCC[C@H](c2cc[nH]n2)[C@@H]1CO[C@H]1CC[C@@H](c2ccccc2)CC1 (relative stereo) [Example 112, cyclobutyl (CIS)-2-((((CIS)-4-phenylcyclohexyl)oxy)methyl)-3-(1H-pyrazol-3-yl)piperidine-1-carboxylate] | 6.36 | 61.6
CCc1c[nH]nc1[C@@H]1CCCN(C(=O)OC)[C@@H]1CO[C@H]1CC[C@@H](c2ccccc2)CC1 [Example 44, (2S,3R)-3-(4-ethyl-1H-pyrazol-3-yl)-2-((((CIS)-4-phenylcyclohexyl)oxy)methyl)piperidine-1-carboxylate] | > 10 | 9.5

Stronger by EC50, values ahead:

EC50 [µM] | % of reference agonist maximal effect [%] | SMILES
3.28 | 94.3 | O=C(CC1COC1)N1CCC[C@H](c2cc[nH]n2)[C@@H]1CO[C@H]1CC[C@@H](c2ccccc2)CC1 (relative stereo) [Example 74, 2-(oxetan-3-yl)-1-((CIS)-2-((((CIS)-4-phenylcyclohexyl)oxy)methyl)-3-(1H-pyrazol-3-yl)piperidin-1-yl)ethan-1-one]
2.92 | 87.6 | O=C(OCCF)N1CCCC(c2ccn[nH]2)C1CO[C@H]1CC[C@@H](c2c(F)ccc(F)c2F)CC1 (relative stereo) [Example 30, 2-Fluoroethyl 3-(1H-pyrazol-5-yl)-2-((((CIS)-4-(2,3,6-trifluorophenyl)cyclohexyl)oxy)methyl)-piperidine-1-carboxylate]
1.02 | 98.7 | COC(=O)COC(=O)N1CCC[C@H](c2cc[nH]n2)[C@@H]1CO[C@H]1CC[C@@H](c2ccccc2)CC1 (relative stereo) [Example 98, 2-methoxy-2-oxoethyl (CIS)-2-((((CIS)-4-phenylcyclohexyl)oxy)methyl)-3-(1H-pyrazol-3-yl)piperidine-1-carboxylate]
0.892 | 99.1 | CC(=O)COC(=O)N1CCC[C@H](c2cc[nH]n2)[C@@H]1CO[C@H]1CC[C@@H](c2ccccc2)CC1 (relative stereo) [Example 97, 2-oxopropyl (CIS)-2-((((CIS)-4-phenylcyclohexyl)oxy)methyl)-3-(1H-pyrazol-3-yl)piperidine-1-carboxylate]
0.227 | 99.0 | COC(=O)N1CCC[C@H](c2n[nH]cc2C#N)[C@@H]1CO[C@H]1CC[C@@H](c2ccccc2)CC1 (single isomer, unassigned) [Example 51]
0.0412 | 100.8 | COC(=O)N1CCC[C@H](c2n[nH]cc2I)[C@@H]1CO[C@H]1CC[C@@H](c2ccccc2)CC1 (relative stereo) [Example 42, Methyl cis-3-(4-iodo-1H-pyrazol-3-yl)-2-((((CIS)-4-phenylcyclohexyl)oxy)methyl)piperidine-1-carboxylate]
